Experimental findings from ChEMBL document CHEMBL4007488, “Amphiphilic Indole Derivatives as Antimycobacterial Agents: Structure-Activity Relationships and Membrane Targeting Properties” (J Med Chem, 2017) are described below.

Values after ≈ are worked out from the molar mass of the structure shown. Active and inactive are the calls of the source. No cut-off for these calls is given here.

The subject of experiment [1] is Mycobacterium tuberculosis variant bovis. Description: Antimycobacterial activity against Mycobacterium bovis BCG ATCC 35734 assessed as membrane depolarization at 200 uM by DiOC2-based fluorescence assay relative to control. It counts as functional, Mycobacterium tuberculosis variant bovis BCG.
Experiment [2] has the same test system. Description: Induction of cell envelope stress in clgR-pspA expressing Mycobacterium bovis BCG ATCC 35734 co-expressing RFP assessed as increase in clgR promoter gene activity at compound MIC50 after 24 hrs by fluorescence assay relative to control. The class given is functional, Mycobacterium tuberculosis variant bovis BCG.
The test system is the same in experiment [3]. Description: Bactericidal activity against Mycobacterium bovis BCG ATCC 35734 assessed as reduction in colony forming units measured on day 4 by time kill assay. The class given is functional. The following applies: ATCC 35734, 96 h, read-out: MBC99.9.
The test system is the same in experiment [4]. The experiment is described as follows: Antimycobacterial activity against Mycobacterium bovis BCG ATCC 35734 assessed as increase in permeabilized cells at 1.6 uM measured daily over 5 days of compound treatment by propidium iodide-staining based FACS analysis. The class given is functional, cell-based.
Experiment [5] shares this test system. Description: Antimycobacterial activity against Mycobacterium bovis BCG ATCC 35734 using middlebrook 7H9 broth media after 5 days by broth dilution method. The class given is functional. The following applies: ATCC 35734, 120 h. In general terms: Broth dilution looks for growth in wells or tubes with falling amounts of substance.
Experiment [6] shares this test system. Description: Antimycobacterial activity against Mycobacterium bovis BCG ATCC 35734 assessed as growth inhibition at 10 uM after 5 days relative to control. The following applies: ATCC 35734, 120 h, read-out: GI. It counts as functional.
Experiment [7] has the same test system. The experiment is described as follows: Antimycobacterial activity against Mycobacterium bovis BCG ATCC 35734 assessed as increase in permeabilized cells at 12 uM by propidium iodide-staining based FACS analysis. It counts as functional, cell-based. The following applies: TDE = time-dependent effect.
Experiment [8] has the same test system. The experiment is described as follows: Antimycobacterial activity against Mycobacterium bovis BCG ATCC 35734 in presence of menaquinone. The class given is functional.
Experiment [9] has the same test system. Description: Antimycobacterial activity against Mycobacterium bovis BCG ATCC 35734 assessed as membrane depolarization at 12 uM by DiOC2-based fluorescence assay. It counts as functional. The following applies: TDE = time-dependent effect.
Experiment [10] has the same test system. Description: Induction of cell envelope stress in iniBAC expressing Mycobacterium bovis BCG ATCC 35734 co-expressing RFP assessed as increase in iniBAC promoter gene activity at compound MIC50 after 24 hrs by fluorescence assay relative to control. The class given is functional, Mycobacterium tuberculosis variant bovis BCG.
Experiment [11] has the same test system. The experiment is described as follows: Antimycobacterial activity against Mycobacterium bovis BCG ATCC 35734 after 5 days by broth dilution method. It counts as functional. The following applies: ATCC 35734, 120 h.
Experiment [12] has the same test system. The experiment is described as follows: Antimycobacterial activity against Mycobacterium bovis BCG ATCC 35734 assessed as membrane depolarization at 1.6 uM measured daily over 5 days of compound treatment by DiOC2-based fluorescence assay. It counts as functional.
Experiment [13] shares this test system. Description: Antimycobacterial activity against Mycobacterium bovis BCG ATCC 35734 up to 4 times MIC90 after 8 weeks. The class given is functional.
For experiment [14] the test system is unchanged. Description: Antimycobacterial activity against Mycobacterium bovis BCG ATCC 35734 using middlebrook 7H9 broth media supplemented with 10 % fetal bovine serum after 5 days by broth dilution method. The following applies: ATCC 35734, 120 h. It counts as functional.
The test system is the same in experiment [15]. The experiment is described as follows: Bactericidal activity against Mycobacterium bovis BCG ATCC 35734 assessed as reduction in colony forming units at 1.6 uM measured daily over 5 days of compound treatment by time kill assay. It counts as functional.
Experiment [16] has the same test system. Description: Bactericidal activity against Mycobacterium bovis BCG ATCC 35734 assessed as 1000 fold kill under low-oxygen tension conditions by time kill assay. It counts as functional, Mycobacterium tuberculosis variant bovis BCG.

For `N#CC(C#N)=NNc1cccc(Cl)c1` [CARBONYL CYANIDE M-CHLOROPHENYLHYDRAZONE], the Activity in experiment [1] amounted to 90%.
Broadly, the MIC50 is an inhibitory concentration at the 50% level, which refers to growth in some studies and to a panel of isolates in others. A higher MIC50 goes with weaker potency. As a reminder, the MIC90 is an inhibitory concentration at the 90% level, which refers to growth in some studies and to a panel of isolates in others. Lower therefore signals higher susceptibility. Take `CCCCCCCCn1cc(CN2CCCCCC2)c2c(F)cccc21`: the “fold change (FC)” value in [2] is recorded as 5; in experiment [10], 10. Besides, the MBC in experiment [3] is 12 µM (≈ 4.3 µg/mL). Besides, the outcome in experiment [4], in [8], in experiment [12], in experiment [13] and in experiment [15] was Active. For the same compound, the MIC50 in experiment [5] amounted to 5 µM (≈ 1.79 µg/mL); in experiment [11], 2 µM (≈ 0.717 µg/mL); in experiment [14], 4.5 µM (≈ 1.61 µg/mL). Besides, the inhibition of growth at 10 µM in [6] came to 99%. For the same compound, the Activity result in experiment [7] and in experiment [9] was “Tde” in each case. The compound also registered an MIC90 in [11] of 6 µM (≈ 2.15 µg/mL). The WCC99.9 in [16] is 12 to 24 µM.
